Each compound was assayed against T1, Purified recombinant HIV-1 integrase (Human immunodeficiency virus type 1 group M subtype B, UniProt P04585) (assay: in vitro HIV-1 integrase integration (strand transfer) assay). Settings: compound at 70 μM; immobilized precleaved substrate DNA, biotinylated target DNA, 1 hour at 37° C.
T1 construct: Purified recombinant HIV-1 integrase
Assay type: biochemical
Procedure: The in vitro activities, against integrase, of compounds of the present invention, were measured in a manner which was similar to previously disclosed methods (cf. Hazuda, D. J.; Felock, P.; Witmer, M.; Wolfe, A.; Stillmock, K.; Grobler, J. A.; Espeseth, A.; Gabryelski, L.; Schleif, W.; Blau, C.; Miller, M. D. Science, 2000, 287, 646) Purified recombinant HIV-1 integrase was incubated with immobilized precleaved substrate DNA in a 96 well plate for 20 min at 37° C. After the integration complex was formed, compounds at desired concentrations were added to the wells followed by a 10 min incubation at 37° C. Biotinyted Target DNA was then added and the reaction was carried out for an additional 1 hour at 37° C. Wells were then washed thoroughly to remove any free DNA and integration activity was measured by using a commercial kit to quantitate the amount of biotinyted target DNA integrated into the substrate.

SMILES	inhibition at 70 µM
O=C(/C=C(\O)C(=O)O)CCc1ccccc1Cl [Compound 1, 6-(2-chloro-phenyl)-2-hydroxy-4-oxo-hex-2-enoic Acid]	70%
O=C(/C=C(\O)C(=O)O)CCc1ccccc1Br [Compound 2, 6-(2-Bromo-phenyl)-2-hydroxy-4-oxo-hex-2-enoic Acid]	90%
O=C(/C=C(\O)C(=O)O)CCc1ccccc1 [Compound 3, 2-Hydroxy-4-oxo-phenyl-hex-2-enoic Acid]	60%
O=C(/C=C(\O)C(=O)O)CC(=O)c1ccccc1OCc1ccccc1 [Compound 4, 6-(2-Benzyloxy-phenyl)-2-hydroxy-4,6,-dioxo-hex-2-enoic Acid]	97%
O=C(/C=C(\O)C(=O)O)CC(=O)c1ccccc1C(F)(F)F [Compound 5, 2-Hydroxy-4,6-dioxo-6-(2-trifluoromethyl-phenyl)-hex-2-enoic Acid]	90%
COc1ccccc1C(=O)CC(=O)/C=C(\O)C(=O)O [Compound 6, 2-Hydroxy-6-(2-methoxy-phenyl)-4,6-dioxo-hex-2-enoic Acid]	90%
O=C(/C=C(\O)C(=O)O)CC(=O)c1ccc2ccccc2c1 [Compound 7, 2-Hydroxy-6-naphthalen-2-yl-4,6-dioxo-hex-2-enoic Acid]	95%
O=C(/C=C(\O)C(=O)O)CC(=O)c1ccc(Cl)cc1Cl [Compound 8, 6-(2,4,-Dichloro-phenyl)-2-hydroxy-4,6-dioxo-hex-2-enoic Acid]	95%
O=C(/C=C(\O)C(=O)O)CC(=O)c1ccc(-c2ccccc2)cc1 [Compound 9, 6-Biphenyl-4-yl-2-hydroxy-4,6-dioxo-hex-2-enoic Acid]	99%
O=C(/C=C(\O)C(=O)O)CC(=O)c1cccc(Cl)c1 [Compound 10, 6-(3-Chloro-phenyl)-2-hydroxy-4,6-dioxo-hex-2-enoic Acid]	88%
O=C(/C=C(\O)C(=O)O)CC(=O)c1ccccc1F [Compound 11, 6-(2-Fluoro-phenyl)-2-hydroxy-4,6,-dioxo-hex-2-enoic Acid]	86%
O=C(/C=C(\O)C(=O)O)CC(=O)c1cc(Cl)ccc1Cl [Compound 12, 6-(2,5-Dichloro-phenyl)2-hydroxy-4,6-dioxo-hex-2-enoic Acid]	98%
O=C(/C=C(\O)C(=O)O)CC(=O)c1ccccc1 [Compound 13, 2-Hydroxy-4,6-dioxo-6-phenyl-hex-2-enoic Acid]	50%

— patent US6548546B2, “HIV integrase inhibitors” (Bristol-Myers Squibb Company, priority 2000, dated 2003)
